{"source": "paper PMC4979471", "about": "(Cell Death Discovery, 2015)", "test_in_all_cases": "Kinase selectivity, P33-radiolabeled assay", "type_in_all_cases": "biochemical", "details_in_all_cases": "10 μM ATP", "key": {"CK1g1": {"target": "T1, CK1g1 (Homo sapiens, UniProt Q9HCP0)", "T1 construct": "purchased Reaction Biology Corp", "T1 sequence (Q9HCP0 whole entry)": "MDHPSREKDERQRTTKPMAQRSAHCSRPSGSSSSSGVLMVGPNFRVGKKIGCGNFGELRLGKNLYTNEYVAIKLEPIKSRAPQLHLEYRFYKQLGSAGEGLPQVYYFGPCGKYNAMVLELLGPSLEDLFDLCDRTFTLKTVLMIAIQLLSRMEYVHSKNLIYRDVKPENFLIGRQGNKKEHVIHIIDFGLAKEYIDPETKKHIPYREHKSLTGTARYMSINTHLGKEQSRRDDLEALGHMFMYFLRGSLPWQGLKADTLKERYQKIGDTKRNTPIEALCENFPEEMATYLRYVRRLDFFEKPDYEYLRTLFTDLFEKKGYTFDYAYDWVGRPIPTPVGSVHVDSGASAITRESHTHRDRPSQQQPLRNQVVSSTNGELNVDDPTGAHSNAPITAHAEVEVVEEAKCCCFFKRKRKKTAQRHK", "summary_of_the_method": "(§1)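 Activity relative to DMSO controls (%) was measured for compound at 10 μM. Assays ran at 10 μM ATP, in duplicate.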"}, "DYRK3": {"target": "T2, DYRK3 (Homo sapiens, UniProt O43781)", "T2 construct": "purchased Reaction Biology Corp", "T2 sequence (O43781 1-588)": "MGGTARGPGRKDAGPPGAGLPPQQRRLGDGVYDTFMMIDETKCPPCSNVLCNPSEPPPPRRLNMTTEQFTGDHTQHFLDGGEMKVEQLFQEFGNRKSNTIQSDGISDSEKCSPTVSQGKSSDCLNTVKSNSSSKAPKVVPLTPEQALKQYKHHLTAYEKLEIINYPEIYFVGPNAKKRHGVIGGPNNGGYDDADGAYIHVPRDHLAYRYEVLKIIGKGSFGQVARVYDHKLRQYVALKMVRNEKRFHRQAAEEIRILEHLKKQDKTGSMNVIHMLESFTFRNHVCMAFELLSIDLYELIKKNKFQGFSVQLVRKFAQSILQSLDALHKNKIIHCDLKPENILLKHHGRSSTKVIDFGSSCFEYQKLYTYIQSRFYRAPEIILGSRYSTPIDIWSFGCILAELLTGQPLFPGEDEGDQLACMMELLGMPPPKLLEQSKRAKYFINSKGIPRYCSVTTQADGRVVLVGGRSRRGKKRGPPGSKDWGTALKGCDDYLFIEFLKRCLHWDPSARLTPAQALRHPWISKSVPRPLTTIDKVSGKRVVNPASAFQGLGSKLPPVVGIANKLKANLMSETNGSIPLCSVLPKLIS", "summary_of_the_method": "as §1"}, "PKCtheta": {"target": "T3, PKCtheta (Homo sapiens, UniProt Q04759)", "T3 construct": "purchased Reaction Biology Corp", "T3 sequence (Q04759 whole entry)": "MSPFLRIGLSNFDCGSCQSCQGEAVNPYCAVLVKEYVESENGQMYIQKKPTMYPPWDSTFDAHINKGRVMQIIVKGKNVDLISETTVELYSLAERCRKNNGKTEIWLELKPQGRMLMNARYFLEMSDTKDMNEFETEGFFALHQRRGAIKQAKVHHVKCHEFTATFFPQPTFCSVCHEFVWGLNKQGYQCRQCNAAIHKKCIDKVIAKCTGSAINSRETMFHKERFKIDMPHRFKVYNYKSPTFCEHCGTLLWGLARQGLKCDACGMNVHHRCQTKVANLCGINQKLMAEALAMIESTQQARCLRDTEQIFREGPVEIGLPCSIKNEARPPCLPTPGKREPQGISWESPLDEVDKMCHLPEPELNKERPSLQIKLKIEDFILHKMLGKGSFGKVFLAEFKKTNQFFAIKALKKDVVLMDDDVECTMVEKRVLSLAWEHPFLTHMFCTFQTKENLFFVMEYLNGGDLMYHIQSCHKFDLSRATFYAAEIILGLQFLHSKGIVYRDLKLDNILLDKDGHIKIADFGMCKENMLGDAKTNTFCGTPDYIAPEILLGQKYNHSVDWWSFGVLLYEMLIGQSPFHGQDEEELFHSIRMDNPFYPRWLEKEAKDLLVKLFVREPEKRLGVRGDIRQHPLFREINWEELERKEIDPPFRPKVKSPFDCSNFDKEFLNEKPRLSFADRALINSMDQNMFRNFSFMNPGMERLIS", "summary_of_the_method": "as §1"}, "MARK2/PAR-1Ba": {"target": "T4, MARK2/PAR-1Ba (Homo sapiens, UniProt Q7KZI7)", "T4 construct": "purchased Reaction Biology Corp", "summary_of_the_method": "as §1"}, "ERBB4/HER4": {"target": "T5, ERBB4/HER4 (Homo sapiens, UniProt Q15303)", "T5 construct": "purchased Reaction Biology Corp", "T5 sequence (Q15303 26-1308)": "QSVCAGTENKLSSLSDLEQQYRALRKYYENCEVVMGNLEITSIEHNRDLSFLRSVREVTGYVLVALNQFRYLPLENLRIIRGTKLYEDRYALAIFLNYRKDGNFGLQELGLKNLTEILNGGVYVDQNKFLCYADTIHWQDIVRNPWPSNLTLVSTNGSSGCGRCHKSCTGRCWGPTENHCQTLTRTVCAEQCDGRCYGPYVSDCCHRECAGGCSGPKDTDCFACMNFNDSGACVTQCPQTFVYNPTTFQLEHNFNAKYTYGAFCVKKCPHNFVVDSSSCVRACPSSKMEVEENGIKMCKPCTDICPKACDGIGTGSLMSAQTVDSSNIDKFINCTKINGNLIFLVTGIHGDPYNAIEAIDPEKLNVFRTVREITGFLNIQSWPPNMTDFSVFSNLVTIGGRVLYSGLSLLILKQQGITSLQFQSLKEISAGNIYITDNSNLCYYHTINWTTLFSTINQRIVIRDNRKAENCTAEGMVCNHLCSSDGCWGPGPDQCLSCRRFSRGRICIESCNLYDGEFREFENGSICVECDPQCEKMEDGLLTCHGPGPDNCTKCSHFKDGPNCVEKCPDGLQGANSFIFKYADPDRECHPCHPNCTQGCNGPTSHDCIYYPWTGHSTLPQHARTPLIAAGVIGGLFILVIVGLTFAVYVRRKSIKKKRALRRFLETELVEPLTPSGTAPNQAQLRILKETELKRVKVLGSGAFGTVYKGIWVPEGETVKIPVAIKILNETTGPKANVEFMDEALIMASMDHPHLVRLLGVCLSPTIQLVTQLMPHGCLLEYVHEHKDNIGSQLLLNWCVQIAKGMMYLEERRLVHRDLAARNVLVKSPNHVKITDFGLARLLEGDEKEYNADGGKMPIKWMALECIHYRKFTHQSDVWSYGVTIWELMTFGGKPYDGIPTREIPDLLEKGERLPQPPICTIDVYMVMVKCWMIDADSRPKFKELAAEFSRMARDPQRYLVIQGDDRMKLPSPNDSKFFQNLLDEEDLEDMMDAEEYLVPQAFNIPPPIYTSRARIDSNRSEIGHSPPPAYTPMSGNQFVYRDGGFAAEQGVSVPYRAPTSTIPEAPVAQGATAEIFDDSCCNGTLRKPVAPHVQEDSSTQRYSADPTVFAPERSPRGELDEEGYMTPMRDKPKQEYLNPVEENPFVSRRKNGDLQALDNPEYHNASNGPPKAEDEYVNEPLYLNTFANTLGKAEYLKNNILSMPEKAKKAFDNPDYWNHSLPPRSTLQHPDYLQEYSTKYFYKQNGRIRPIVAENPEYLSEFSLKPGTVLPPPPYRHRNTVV", "summary_of_the_method": "as §1"}, "ALK3/BMPR1A": {"target": "T6, ALK3/BMPR1A (Homo sapiens, UniProt P36894)", "T6 construct": "purchased Reaction Biology Corp", "T6 sequence (P36894 24-532)": "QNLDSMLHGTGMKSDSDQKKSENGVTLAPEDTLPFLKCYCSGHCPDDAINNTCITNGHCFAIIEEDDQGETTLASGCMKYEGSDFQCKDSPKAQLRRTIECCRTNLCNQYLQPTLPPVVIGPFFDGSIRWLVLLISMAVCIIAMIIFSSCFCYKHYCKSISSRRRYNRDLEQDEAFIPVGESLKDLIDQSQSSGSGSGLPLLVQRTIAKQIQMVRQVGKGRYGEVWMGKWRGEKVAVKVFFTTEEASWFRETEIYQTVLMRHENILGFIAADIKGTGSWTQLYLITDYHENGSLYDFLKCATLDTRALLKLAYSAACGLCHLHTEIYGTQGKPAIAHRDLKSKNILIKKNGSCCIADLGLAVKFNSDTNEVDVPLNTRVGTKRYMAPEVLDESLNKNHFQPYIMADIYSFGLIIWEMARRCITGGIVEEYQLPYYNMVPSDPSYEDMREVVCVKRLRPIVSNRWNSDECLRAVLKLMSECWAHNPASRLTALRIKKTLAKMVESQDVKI", "summary_of_the_method": "as §1"}, "TYK2": {"target": "T7, TYK2 (Homo sapiens, UniProt P29597)", "T7 construct": "purchased Reaction Biology Corp", "T7 sequence (P29597 whole entry)": "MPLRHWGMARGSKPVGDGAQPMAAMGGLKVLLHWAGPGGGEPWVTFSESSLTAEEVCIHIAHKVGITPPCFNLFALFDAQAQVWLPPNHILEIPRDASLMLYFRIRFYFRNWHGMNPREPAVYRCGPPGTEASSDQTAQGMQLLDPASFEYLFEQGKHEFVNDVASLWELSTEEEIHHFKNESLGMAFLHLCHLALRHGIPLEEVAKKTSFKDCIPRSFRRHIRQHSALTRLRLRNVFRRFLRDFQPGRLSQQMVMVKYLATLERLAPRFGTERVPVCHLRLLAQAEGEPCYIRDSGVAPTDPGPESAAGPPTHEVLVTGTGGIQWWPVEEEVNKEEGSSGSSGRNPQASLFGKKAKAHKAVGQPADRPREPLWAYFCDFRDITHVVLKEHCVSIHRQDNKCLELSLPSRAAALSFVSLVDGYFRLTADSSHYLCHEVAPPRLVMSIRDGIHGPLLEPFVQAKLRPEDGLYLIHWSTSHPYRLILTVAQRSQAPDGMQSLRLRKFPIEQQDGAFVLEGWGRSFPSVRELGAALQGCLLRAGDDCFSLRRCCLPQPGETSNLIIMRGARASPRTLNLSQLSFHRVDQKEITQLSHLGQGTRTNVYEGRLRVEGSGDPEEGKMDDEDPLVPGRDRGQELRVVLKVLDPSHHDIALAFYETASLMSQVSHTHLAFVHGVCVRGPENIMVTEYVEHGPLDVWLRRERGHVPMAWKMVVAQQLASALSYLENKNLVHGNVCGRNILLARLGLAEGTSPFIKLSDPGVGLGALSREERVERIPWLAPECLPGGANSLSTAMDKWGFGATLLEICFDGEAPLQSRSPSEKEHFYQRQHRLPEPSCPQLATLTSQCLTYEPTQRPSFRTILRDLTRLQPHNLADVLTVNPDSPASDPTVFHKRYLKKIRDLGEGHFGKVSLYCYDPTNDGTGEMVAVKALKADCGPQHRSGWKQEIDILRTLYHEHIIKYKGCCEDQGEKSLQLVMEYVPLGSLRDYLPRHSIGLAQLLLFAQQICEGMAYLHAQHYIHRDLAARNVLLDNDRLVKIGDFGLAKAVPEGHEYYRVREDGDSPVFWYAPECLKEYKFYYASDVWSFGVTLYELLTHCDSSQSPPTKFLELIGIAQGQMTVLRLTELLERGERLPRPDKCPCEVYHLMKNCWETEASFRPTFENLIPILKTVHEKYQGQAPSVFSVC", "summary_of_the_method": "as §1"}, "TAOK1": {"target": "T8, TAOK1 (Homo sapiens, UniProt Q7L7X3)", "T8 construct": "purchased Reaction Biology Corp", "T8 sequence (Q7L7X3 1-1001)": "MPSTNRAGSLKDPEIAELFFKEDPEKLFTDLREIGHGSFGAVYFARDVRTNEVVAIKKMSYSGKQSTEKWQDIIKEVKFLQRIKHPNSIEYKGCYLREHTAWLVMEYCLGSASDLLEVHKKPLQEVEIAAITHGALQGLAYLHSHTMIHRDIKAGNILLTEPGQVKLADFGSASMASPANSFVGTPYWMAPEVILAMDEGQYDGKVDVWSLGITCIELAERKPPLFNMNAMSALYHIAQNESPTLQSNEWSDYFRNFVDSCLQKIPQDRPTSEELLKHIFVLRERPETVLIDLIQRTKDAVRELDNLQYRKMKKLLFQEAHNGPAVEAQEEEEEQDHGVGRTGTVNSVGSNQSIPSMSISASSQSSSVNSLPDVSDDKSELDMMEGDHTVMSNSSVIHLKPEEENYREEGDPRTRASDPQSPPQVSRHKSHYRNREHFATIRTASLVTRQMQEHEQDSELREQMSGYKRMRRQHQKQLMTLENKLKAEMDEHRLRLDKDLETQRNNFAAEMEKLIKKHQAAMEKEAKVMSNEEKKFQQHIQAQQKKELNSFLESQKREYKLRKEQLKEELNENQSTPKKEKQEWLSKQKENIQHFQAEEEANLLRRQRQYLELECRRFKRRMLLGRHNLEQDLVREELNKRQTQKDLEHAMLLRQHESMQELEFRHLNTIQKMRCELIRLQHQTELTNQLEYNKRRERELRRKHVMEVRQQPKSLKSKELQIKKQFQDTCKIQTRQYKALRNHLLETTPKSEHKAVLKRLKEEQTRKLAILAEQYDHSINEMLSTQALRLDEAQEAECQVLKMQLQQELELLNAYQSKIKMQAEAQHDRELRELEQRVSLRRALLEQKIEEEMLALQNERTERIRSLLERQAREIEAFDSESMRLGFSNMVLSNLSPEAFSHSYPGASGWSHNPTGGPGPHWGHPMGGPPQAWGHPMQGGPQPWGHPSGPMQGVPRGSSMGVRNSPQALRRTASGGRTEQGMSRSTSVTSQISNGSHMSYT", "summary_of_the_method": "as §1"}, "FES/FPS": {"target": "T9, FES/FPS (Homo sapiens, UniProt P07332)", "T9 construct": "purchased Reaction Biology Corp", "T9 sequence (P07332 whole entry)": "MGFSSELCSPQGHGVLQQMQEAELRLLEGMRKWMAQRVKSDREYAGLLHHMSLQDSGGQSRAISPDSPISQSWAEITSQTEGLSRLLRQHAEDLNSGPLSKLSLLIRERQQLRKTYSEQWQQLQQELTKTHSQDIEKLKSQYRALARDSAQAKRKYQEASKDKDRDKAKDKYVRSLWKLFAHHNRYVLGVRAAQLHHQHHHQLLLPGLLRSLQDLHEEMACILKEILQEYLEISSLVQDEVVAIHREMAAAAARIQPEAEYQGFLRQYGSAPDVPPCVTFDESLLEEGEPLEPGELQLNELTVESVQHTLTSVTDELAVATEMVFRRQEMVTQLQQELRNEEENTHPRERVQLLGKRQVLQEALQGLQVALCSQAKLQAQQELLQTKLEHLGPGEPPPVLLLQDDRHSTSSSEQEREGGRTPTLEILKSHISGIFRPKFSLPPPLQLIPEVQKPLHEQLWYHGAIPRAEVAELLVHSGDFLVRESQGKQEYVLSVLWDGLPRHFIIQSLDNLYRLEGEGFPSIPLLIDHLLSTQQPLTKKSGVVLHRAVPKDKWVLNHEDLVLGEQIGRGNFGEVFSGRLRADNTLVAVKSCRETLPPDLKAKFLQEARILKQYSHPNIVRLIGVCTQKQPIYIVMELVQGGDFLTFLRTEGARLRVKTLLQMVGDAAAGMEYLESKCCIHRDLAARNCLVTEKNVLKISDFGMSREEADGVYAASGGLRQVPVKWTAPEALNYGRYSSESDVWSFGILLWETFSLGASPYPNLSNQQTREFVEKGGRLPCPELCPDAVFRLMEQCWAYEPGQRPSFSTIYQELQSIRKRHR", "summary_of_the_method": "as §1"}, "[1]": {"details": "read-out: % Enzyme Activity (relative to DMSO controls) AVG"}, "[2]": {"details": "read-out: % Enzyme Activity (relative to DMSO controls) Data 1"}, "[3]": {"details": "read-out: % Enzyme Activity (relative to DMSO controls) Data 2"}}, "note": "Read-outs that look alike come from different tables or passages of the source.", "data": [{"smiles": "CC(C)(C)C(=O)N1N=CC[C@H]1c1ccccc1", "note": "[GSK′963]", "values": [{"measurement": "remaining activity at 10 µM", "setting": "CK1g1; [1]", "value": 108, "unit": "%"}, {"measurement": "remaining activity at 10 µM", "setting": "CK1g1; [2]", "value": 111, "unit": "%"}, {"measurement": "remaining activity at 10 µM", "setting": "CK1g1; [3]", "value": 105, "unit": "%"}, {"measurement": "remaining activity at 10 µM", "setting": "DYRK3; [1]", "value": 115, "unit": "%"}, {"measurement": "remaining activity at 10 µM", "setting": "DYRK3; [2]", "value": 113, "unit": "%"}, {"measurement": "remaining activity at 10 µM", "setting": "DYRK3; [3]", "value": 116, "unit": "%"}, {"measurement": "remaining activity at 10 µM", "setting": "PKCtheta; [1]", "value": 96.8, "unit": "%"}, {"measurement": "remaining activity at 10 µM", "setting": "PKCtheta; [2]", "value": 97, "unit": "%"}, {"measurement": "remaining activity at 10 µM", "setting": "PKCtheta; [3]", "value": 96.7, "unit": "%"}, {"measurement": "remaining activity at 10 µM", "setting": "MARK2/PAR-1Ba; [1]", "value": 105, "unit": "%"}, {"measurement": "remaining activity at 10 µM", "setting": "MARK2/PAR-1Ba; [2]", "value": 106, "unit": "%"}, {"measurement": "remaining activity at 10 µM", "setting": "MARK2/PAR-1Ba; [3]", "value": 104, "unit": "%"}, {"measurement": "remaining activity at 10 µM", "setting": "ERBB4/HER4; [1]", "value": 102, "unit": "%"}, {"measurement": "remaining activity at 10 µM", "setting": "ERBB4/HER4; [2]", "value": 101, "unit": "%"}, {"measurement": "remaining activity at 10 µM", "setting": "ERBB4/HER4; [3]", "value": 104, "unit": "%"}, {"measurement": "remaining activity at 10 µM", "setting": "ALK3/BMPR1A; [1]", "value": 101, "unit": "%"}, {"measurement": "remaining activity at 10 µM", "setting": "ALK3/BMPR1A; [2]", "value": 103, "unit": "%"}, {"measurement": "remaining activity at 10 µM", "setting": "ALK3/BMPR1A; [3]", "value": 99.8, "unit": "%"}, {"measurement": "remaining activity at 10 µM", "setting": "TYK2; [1]", "value": 103, "unit": "%"}, {"measurement": "remaining activity at 10 µM", "setting": "TYK2; [2]", "value": 104, "unit": "%"}, {"measurement": "remaining activity at 10 µM", "setting": "TYK2; [3]", "value": 101, "unit": "%"}, {"measurement": "remaining activity at 10 µM", "setting": "TAOK1; [1]", "value": 99.3, "unit": "%"}, {"measurement": "remaining activity at 10 µM", "setting": "TAOK1; [2]", "value": 101, "unit": "%"}, {"measurement": "remaining activity at 10 µM", "setting": "TAOK1; [3]", "value": 97.8, "unit": "%"}, {"measurement": "remaining activity at 10 µM", "setting": "FES/FPS; [1]", "value": 91.3, "unit": "%"}, {"measurement": "remaining activity at 10 µM", "setting": "FES/FPS; [2]", "value": 93.2, "unit": "%"}, {"measurement": "remaining activity at 10 µM", "setting": "FES/FPS; [3]", "value": 89.5, "unit": "%"}]}]}
